Data taken from PMC5515859, “Metabolism of F18, a Derivative of Calanolide A, in Human Liver Microsomes and Cytosol” (Frontiers in Pharmacology, 2017).
Where two headings read alike, the source gives them in different places.

Experiments:
CYP1A2 [1] = conditions: cited from earlier work
[2] = design: method as in Creagh et al., 2001; Eiznhamer et al., 2002; conditions: ref Creagh et al., 2001; Eiznhamer et al., 2002; cited from earlier work
CYP3A4/5 = conditions: cited from earlier work
CYP3A4 [3] = assay: Microsomal incubations of F18 with chemical inhibitors of CYPs or thermal inactivation of FMOs; conditions: human, human liver microsomes
Method: (§1) The contributions of CYPs and FMOs to the metabolism of F18 were investigated by chemical inhibition and thermal inactivation, respectively. […] Briefly, F18 (10 μM) was incubated with HLMs (0.5 mg protein/mL) and an NADPH-generating system in the absence and presence of CYP inhibitors at 37°C for 30 min, and the reaction was terminated with two volumes of ice-cold acetonitrile. […] In brief, HLMs (0.5 mg protein/mL) were preheated at 50°C for 5 min and then immersed in an ice-cold bath. After the addition of F18 (10 μM) and equilibration for 3 min at 37°C, the reaction was started by the addition of the NADPH-generating system. After a 30-min incubation, the reactions were terminated as described above. […] The formation of the major metabolites M1, M2-9, M3-1, M3-2, M5-2, M5-3, M5-4, and M5-5 was analyzed by LC-MS/MS.
(§2) The amounts of F18, M1, M2-9, M3-1, M3-2, M5-2, M5-3, M5-4, and M5-5 in the incubations were simultaneously quantified with the LC-MS/MS system. […] The sheath gas, auxiliary gas, spray voltage and tube lens parameters were the same as those for the metabolic profiling studies.

CYP2D6 = conditions: cited from earlier work
CYP2C19 [4] = conditions: cited from earlier work
CYPs and FMOs in HLMs = assay: Microsomal incubations of F18 with chemical inhibitors of CYPs or thermal inactivation of FMOs
Method: as §1, §2

CYP2E1 = conditions: cited from earlier work
[5] = tested on: carbonyl reductases in HLM; assay: Inhibition of carbonyl reduction of F18 (formation of M3-1 and M3-2) by chemical inhibitors in HLM; type: in vitro ADME, human; conditions: NADPH, F18 10 μM, 30 min
Method: F18 (10 μM) was incubated with HLMs (0.5 mg/mL) and the NADPH-generating system for 30 min or with HLcy and a cofactor (NADPH or NADH) for 10 min in the presence of chemical inhibitors under the above-described conditions. Control incubations using the vehicles but not the chemical inhibitors were also performed. The formation of M3-1 and M3-2 was quantified by LC-MS/MS.
as §2

HIV-1 = conditions: ref Xue et al., 2010, cited from earlier work
CYP2C9 = tested on: CYP2C9; design: method as in unpublished data; conditions: previous study; ref unpublished data; cited from earlier work
recombinant CYP3A4 = target: T1, recombinant CYP3A4 (Homo sapiens, UniProt P08684); assay: Metabolism of F18 by cDNA-expressed CYP3A4; type: in vitro ADME; conditions: F18 10 μM, 50 pmol/mL enzyme, 1 h; among 14 CYP isoforms
T1 construct: purchased BD Gentest (Woburn, MA, USA)
Method: To further verify the roles of CYPs and FMOs in the metabolism of F18 in humans, F18 (10 μM) was incubated individually with 14 cDNA-expressed human CYP isozymes (50-pmol/mL CYP1A1, CYP1A2, CYP2A6, CYP2B6, CYP2C8, CYP2C9, CYP2C19, CYP2D6, CYP2E1, CYP2J2, CYP3A4, CYP4F2, CYP4F3, and CYP4A11) and three cDNA-expressed FMO enzymes (50-pmol/mL FMO1, FMO3, and FMO5). The incubation conditions were similar to those used for HLMs (described above), with the exception of the incubating time […]. Samples incubated without NADPH were used as the negative control.

CYP2C19 [6] = tested on: CYP2C19; design: method as in unpublished data; conditions: previous study; ref unpublished data; cited from earlier work
VSV-G/HIV-1 viruses = assay: microbe, parasite or virus in culture; type: cell-based; conditions: Human immunodeficiency virus 1, HEK-293T, 48 h, read-out: IC50, inhibition of HIV-1 replication
CYP1A2 [7] = tested on: CYP1A2; design: method as in unpublished data; conditions: previous study; ref unpublished data; cited from earlier work
[8] = tested on: Y181C single mutation of HIV-1; conditions: ref Xue et al., 2010; cited from earlier work
[9] = Pharmacokinetics in rats after oral administration of F18; type: in vivo, Sprague-Dawley rats; conditions: rat blood, oral F18 50 mg/kg, mean ± SD, n = 5
Method: To investigate the pharmacokinetic characteristics of F18 and its major metabolites, five rats were intragastrically administered F18 at a dose of 50 mg/kg. Blood samples were collected in heparinized ice-bath tubes from the suborbital veniplex at 0, 0.25, 0.5, 1, 2, 4, 6, 8, 12, 16, and 24 h postdose. The blood concentrations of F18 and its major metabolites were determined by LC-MS/MS and their pharmacokinetic parameters were calculated through non-compartmental analysis using WinNonlin Version 6.1 (Pharsight, Mountain View, CA, USA).
For the blood samples, F18, M1, M3-1, and M3-2 were simultaneously quantified using the following elution gradient: Solvent B was maintained at 15% for 2 min, increased to 85% in 1 min, maintained at 85% for 5 min, decreased to 15% in 0.5 min and maintained at 15% for 4.5 min. Detection was also performed using a Finnigan TSQ Quantum MS instrument with an electrospray ionization probe operated in the positive mode.
Calibration curves for F18 and its metabolites were fitted via linearly weighted (1/x^2) least-squares regression. The correlation coefficient values of F18 and its metabolites in the incubations were >0.99 for the range 10–5,000 nM; the LOQ was 10 nM with a signal-to-noise ratio >10:1; the accuracies were 90–113% and the precisions (RSD) were <10.5%. In the blood samples, the correlation coefficient values for F18, M1, M3-1, and M3-2 were >0.99 for the range 5–2,000 nM; the LOQ was 5 nM with the signal-to-noise ratio >10:1; the accuracies were 91–112% and the precisions (RSD) were <9.6%. In addition, no interference was found in the retention time of each analyte in both the incubated samples and the blood samples.

CYP3A4 [10] = tested on: CYP3A4; design: method as in unpublished data; conditions: previous study; ref unpublished data; cited from earlier work
[11] = high concentration: 18β-glycyrrhetinic acid 0.5 μM, 2-CEE 5 mM
[12] = low concentration: 18β-glycyrrhetinic acid 0.1 μM, 2-CEE 1 mM
[13] = HLMs preheated at 50°C for 5 min, F18 10 μM

T1 sequence (P08684 whole entry, canonical isoform): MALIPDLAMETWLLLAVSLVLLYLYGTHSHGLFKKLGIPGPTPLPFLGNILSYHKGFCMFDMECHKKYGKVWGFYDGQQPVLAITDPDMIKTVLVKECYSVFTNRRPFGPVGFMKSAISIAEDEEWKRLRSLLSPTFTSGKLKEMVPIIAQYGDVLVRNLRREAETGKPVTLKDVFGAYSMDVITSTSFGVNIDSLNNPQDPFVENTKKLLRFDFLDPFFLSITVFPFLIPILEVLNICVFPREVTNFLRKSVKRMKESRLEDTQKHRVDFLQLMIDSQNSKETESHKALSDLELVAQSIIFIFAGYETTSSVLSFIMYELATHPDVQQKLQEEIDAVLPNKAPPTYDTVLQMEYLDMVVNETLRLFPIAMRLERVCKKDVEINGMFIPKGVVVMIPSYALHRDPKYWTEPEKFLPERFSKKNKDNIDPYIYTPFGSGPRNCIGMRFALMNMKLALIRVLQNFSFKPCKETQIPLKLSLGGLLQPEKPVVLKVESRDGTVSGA

For CCCc1cc(=O)oc2c3c(c4c(c12)OC(C)(C)C=C4)O[C@H](C)[C@@H](C)[C@@H]3O [calanolide A, Calanolide A], the “Tolerability in Phase I studies” value [2] is given as “well tolerated”.

For CC(=O)N1CCN(c2ccc(OCC3COC(Cn4ccnc4)(c4ccc(Cl)cc4Cl)O3)cc2)CC1 (centres unmarked) [ketoconazole], the Ki (CYP3A4/5) is listed as 3.7 to 180 nM, the inhibition at 30 min, 1 μM (CYP3A4 [3]) is listed as > 80% and the inhibition at 30 min, 1 μM (CYP3A4 [3]; probe F18 (10 μM), formation of metabolite M1) is listed as 20 to 30%.

For C=C(C)[C@@H]1CCC2=CC(=O)C[C@@H](C)[C@]2(C)C1 [nootkatone], the Ki (CYP2C19 [4]) is listed as 500 nM.

In the case of Cc1ncc2n1-c1ccc(Cl)cc1C(c1ccccc1F)=NC2 [midazolam], the Km (CYP3A4/5) is listed as 1 to 14 µM and the “Metabolism of probe substrate after thermal inactivation of HLMs” value (CYPs and FMOs in HLMs) is listed as “unchanged”.

For Cc1ncsc1CCCl [Clomethiazole], the Ki (CYP2E1) is given as 12000 nM.

With CC1(C)[C@@H](O)CC[C@]2(C)[C@H]3C(=O)C=C4[C@@H]5C[C@@](C)(C(=O)O)CC[C@]5(C)CC[C@@]4(C)[C@]3(C)CC[C@@H]12 [18β-Glycyrrhetinic, 18β-glycyrrhetinic acid] the “Percentage of inhibition of the formation of M3-1, H” value [5, 11] was 13.7%, the “Percentage of inhibition of the formation of M3-2, H” value [5, 11] was 67.5% and the “Percentage of inhibition of the formation of M3-1, L” value [5, 12] was 1.2%. The “Percentage of inhibition of the formation of M3-2, L” value [5, 12] was 51.4%.

In the case of COc1ccc2c(c1)[C@]13CCCC[C@@H]1[C@H](C2)N(C)CC3 [dextromethorphan], the Km (CYP2D6) is given as 0.44 to 8.5 µM.

In the case of C=CCSSCC=C [diallyldisulfide], the Ki (CYP2E1) is listed as 150000 nM.

For CCCc1cc(=O)oc2c3c(c4c(c12)OC(C)(C)C=C4)OC(CCl)CC3=O (centres unmarked) [Metabolite F18, 10-Chloromethyl-11-demethyl-12-oxo-calanolide A], the “therapeutic (index)” value (HIV-1) is listed as 1417, the EC50 (HIV-1; read-out: half-maximal effective concentration (EC50)) is listed as 7.4 nM and the “Effect on CYP2C9” value (CYP2C9) is listed as “potent inhibitory effects”. For the same compound, the “Metabolic activity of recombinant CYP3A4 for the formation of M1, M2-9, M5-2, M5-3, M5-4, and M5-5” value (recombinant CYP3A4) was “highest metabolic activity”, the “Effect on CYP2C19” value (CYP2C19 [6]) was “potent inhibitory effects” and the IC50 (VSV-G/HIV-1 viruses) was 190 nM. The “Effect on CYP1A2” value (CYP1A2 [7]) was “potent inhibitory effects”, the “Potency against Y181C mutant HIV-1 (in words)” value [8] was “extremely high potency” and the “Formation of M3-1 after thermal inactivation of FMOs” value (CYPs and FMOs in HLMs; [13]) was “significantly inhibited”. For the same compound, the “Reduction in M1 formation by thermal inactivation of FMOs” value (CYPs and FMOs in HLMs; [13]) was 64%, the Cmax ([9]; Sprague-Dawley) was 443 ± 107 nM and the Tmax ([9]; Sprague-Dawley) was 3.3 ± 2.2 h. For the same compound, the half-life ([9]; Sprague-Dawley) was 5.3 ± 2.8 h, the MRT last ([9]; Sprague-Dawley, read-out: MRT0−t) was 7.8 ± 1 h and the MRT inf ([9]; Sprague-Dawley, read-out: MRT0−∞) was 10 ± 2.4 h. The “AUC0−∞” value ([9]; 50 mg/kg) was 5,166 h^*nM and the “Effect on CYP3A4” value (CYP3A4 [10]) was “activation-inducing effect”.

For CCOc1ccc(NC(C)=O)cc1 [Phenacetin], the Km (CYP1A2 [1]; read-out: substrate Km, CYP1A2, metabolite Acetaminophen, ref FDA Drug Development and Drug Interactions) is listed as 1.7 to 152 µM.
